What was measured:
[1] = biological target: Glycogen synthase kinase-3 beta (Homo sapiens) (UniProt P49841); conditions: Compound concentration 1000.0 nM
[2] = biological target: Casein kinase I isoform delta (Homo sapiens) (UniProt P48730); conditions: Compound concentration 1000.0 nM
[3] = biological target: NUAK family SNF1-like kinase 1 (Homo sapiens) (UniProt O60285); conditions: Compound concentration 1000.0 nM
[4] = biological target: Cyclin-dependent kinase-like 1 (Homo sapiens) (UniProt Q00532); conditions: Compound concentration 1000.0 nM
[5] = system: Leucine-rich repeat serine/threonine-protein kinase 2 (Homo sapiens), Q5S007 [G2019S]; conditions: Compound concentration 1000.0 nM
[6] = system: Mast/stem cell growth factor receptor Kit (Homo sapiens), P10721 [D816H]; conditions: Compound concentration 1000.0 nM
[7] = biological target: Serine/threonine-protein kinase Chk1 (Homo sapiens) (UniProt O14757); conditions: Compound concentration 1000.0 nM
[8] = biological target: Cyclin-dependent kinase 19 (Homo sapiens) (UniProt Q9BWU1); conditions: Compound concentration 1000.0 nM
[9] = biological target: Serine/threonine-protein kinase WNK2 (Homo sapiens) (UniProt Q9Y3S1); conditions: Compound concentration 1000.0 nM
[10] = biological target: Casein kinase I isoform gamma-1 (Homo sapiens) (UniProt Q9HCP0); conditions: Compound concentration 1000.0 nM
[11] = biological target: Serine/threonine-protein kinase PLK1 (Homo sapiens) (UniProt P53350); conditions: Compound concentration 1000.0 nM
[12] = biological target: Serine/threonine-protein kinase NLK (Homo sapiens) (UniProt Q9UBE8); conditions: Compound concentration 1000.0 nM
[13] = biological target: Interleukin-1 receptor-associated kinase 1 (Homo sapiens) (UniProt P51617); conditions: Compound concentration 1000.0 nM
[14] = biological target: Cyclin-dependent kinase 4 (Homo sapiens) (UniProt P11802); conditions: Compound concentration 1000.0 nM
[15] = biological target: Serine/threonine-protein kinase pim-2 (Homo sapiens) (UniProt Q9P1W9); conditions: Compound concentration 1000.0 nM
[16] = biological target: Mitogen-activated protein kinase kinase kinase 20 (Homo sapiens) (UniProt Q9NYL2); conditions: Compound concentration 1000.0 nM
[17] = biological target: Casein kinase II subunit alpha' (Homo sapiens) (UniProt P19784); conditions: Compound concentration 1000.0 nM
[18] = biological target: Alpha-2B adrenergic receptor (Homo sapiens) (UniProt P18089); conditions: Compound concentration 10.0 uM
[19] = biological target: Dual specificity tyrosine-phosphorylation-regulated kinase 1B (Homo sapiens) (UniProt Q9Y463); conditions: Compound concentration 1000.0 nM
[20] = system: Epidermal growth factor receptor (Homo sapiens), P00533 [UNDEFINED MUTATION]; conditions: Compound concentration 1000.0 nM
[21] = biological target: Tyrosine-protein kinase Fes/Fps (Homo sapiens) (UniProt P07332); conditions: Compound concentration 1000.0 nM
[22] = biological target: Serine/threonine-protein kinase 4 (Homo sapiens) (UniProt Q13043); conditions: Compound concentration 1000.0 nM
[23] = biological target: Interleukin-1 receptor-associated kinase 4 (Homo sapiens) (UniProt Q9NWZ3); conditions: Compound concentration 1000.0 nM
[24] = biological target: High affinity nerve growth factor receptor (Homo sapiens) (UniProt P04629); conditions: Compound concentration 1000.0 nM
[25] = biological target: Serine/threonine-protein kinase 24 (Homo sapiens) (UniProt Q9Y6E0); conditions: Compound concentration 1000.0 nM
[26] = biological target: Serine/threonine-protein kinase NIM1 (Homo sapiens) (UniProt Q8IY84); conditions: Compound concentration 1000.0 nM
[27] = biological target: Mitogen-activated protein kinase kinase kinase 12 (Homo sapiens) (UniProt Q12852); conditions: Compound concentration 1000.0 nM
[28] = system: Mast/stem cell growth factor receptor Kit (Homo sapiens), P10721 [D816V]; conditions: Compound concentration 1000.0 nM
[29] = biological target: Receptor tyrosine-protein kinase erbB-3 (Homo sapiens) (UniProt P21860); conditions: Compound concentration 1000.0 nM
[30] = system: Mast/stem cell growth factor receptor Kit (Homo sapiens), P10721 [V559D,V654A]; conditions: Compound concentration 1000.0 nM
[31] = biological target: Serine/threonine-protein kinase 17B (Homo sapiens) (UniProt O94768); conditions: Compound concentration 1000.0 nM
[32] = biological target: Homeodomain-interacting protein kinase 2 (Homo sapiens) (UniProt Q9H2X6); conditions: Compound concentration 1000.0 nM
[33] = biological target: Serine/threonine-protein kinase 32C (Homo sapiens) (UniProt Q86UX6); conditions: Compound concentration 1000.0 nM
[34] = biological target: Macrophage colony-stimulating factor 1 receptor (Homo sapiens) (UniProt P07333); conditions: Compound concentration 1000.0 nM
[35] = system: Phosphatidylinositol 4,5-bisphosphate 3-kinase catalytic subunit alpha isoform (Homo sapiens), P42336 [H1047L]; conditions: Compound concentration 1000.0 nM
[36] = biological target: Phosphatidylinositol 5-phosphate 4-kinase type-2 beta (Homo sapiens) (UniProt P78356); conditions: Compound concentration 1000.0 nM
[37] = biological target: Ephrin type-B receptor 3 (Homo sapiens) (UniProt P54753); conditions: Compound concentration 1000.0 nM
[38] = biological target: Mitogen-activated protein kinase 1 (Homo sapiens) (UniProt P28482); conditions: Compound concentration 1000.0 nM
[39] = system: Receptor-type tyrosine-protein kinase FLT3 (Homo sapiens), P36888 [UNDEFINED MUTATION]; conditions: Compound concentration 1000.0 nM
[40] = biological target: Tyrosine-protein kinase Fyn (Homo sapiens) (UniProt P06241); conditions: Compound concentration 1000.0 nM
[41] = biological target: Serine/threonine-protein kinase 25 (Homo sapiens) (UniProt O00506); conditions: Compound concentration 1000.0 nM
[42] = biological target: Phosphatidylinositol 4-phosphate 5-kinase type-1 alpha (Homo sapiens) (UniProt Q99755); conditions: Compound concentration 1000.0 nM
[43] = biological target: Serine/threonine-protein kinase MAK (Homo sapiens) (UniProt P20794); conditions: Compound concentration 1000.0 nM
[44] = biological target: SRSF protein kinase 2 (Homo sapiens) (UniProt P78362); conditions: Compound concentration 1000.0 nM
[45] = biological target: Vascular endothelial growth factor receptor 2 (Homo sapiens) (UniProt P35968); conditions: Compound concentration 1000.0 nM

Sequence of Serine/threonine-protein kinase PLK1 (Homo sapiens) (P53350 whole entry): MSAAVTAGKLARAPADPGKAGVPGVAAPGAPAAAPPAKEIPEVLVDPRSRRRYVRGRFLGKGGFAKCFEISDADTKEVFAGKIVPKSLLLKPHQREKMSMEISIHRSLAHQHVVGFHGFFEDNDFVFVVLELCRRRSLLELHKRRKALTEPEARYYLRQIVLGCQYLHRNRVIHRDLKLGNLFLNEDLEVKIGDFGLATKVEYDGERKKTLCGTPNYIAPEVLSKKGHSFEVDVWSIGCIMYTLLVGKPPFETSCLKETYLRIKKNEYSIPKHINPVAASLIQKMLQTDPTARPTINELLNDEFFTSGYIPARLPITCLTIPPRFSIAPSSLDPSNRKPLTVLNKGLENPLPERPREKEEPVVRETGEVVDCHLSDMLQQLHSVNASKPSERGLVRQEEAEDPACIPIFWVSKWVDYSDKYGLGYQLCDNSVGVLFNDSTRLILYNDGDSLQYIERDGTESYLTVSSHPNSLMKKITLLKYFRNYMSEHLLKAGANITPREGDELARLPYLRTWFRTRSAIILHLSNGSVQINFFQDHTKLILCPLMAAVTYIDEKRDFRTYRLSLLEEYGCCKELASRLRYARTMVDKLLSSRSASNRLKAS
Sequence of Serine/threonine-protein kinase 25 (Homo sapiens) (O00506 whole entry, looked up): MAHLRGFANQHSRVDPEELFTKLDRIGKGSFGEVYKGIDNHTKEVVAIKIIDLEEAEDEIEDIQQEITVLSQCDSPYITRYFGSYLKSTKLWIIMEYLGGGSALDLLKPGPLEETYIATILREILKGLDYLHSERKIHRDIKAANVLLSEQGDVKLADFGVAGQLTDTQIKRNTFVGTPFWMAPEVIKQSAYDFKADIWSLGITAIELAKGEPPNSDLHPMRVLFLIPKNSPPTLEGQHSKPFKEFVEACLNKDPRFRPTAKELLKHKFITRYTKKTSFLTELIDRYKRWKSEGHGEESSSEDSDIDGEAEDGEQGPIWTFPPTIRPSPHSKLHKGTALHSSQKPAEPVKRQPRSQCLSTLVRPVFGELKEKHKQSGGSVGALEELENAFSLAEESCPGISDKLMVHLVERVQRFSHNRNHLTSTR
Sequence of Cyclin-dependent kinase-like 1 (Homo sapiens) (Q00532 whole entry): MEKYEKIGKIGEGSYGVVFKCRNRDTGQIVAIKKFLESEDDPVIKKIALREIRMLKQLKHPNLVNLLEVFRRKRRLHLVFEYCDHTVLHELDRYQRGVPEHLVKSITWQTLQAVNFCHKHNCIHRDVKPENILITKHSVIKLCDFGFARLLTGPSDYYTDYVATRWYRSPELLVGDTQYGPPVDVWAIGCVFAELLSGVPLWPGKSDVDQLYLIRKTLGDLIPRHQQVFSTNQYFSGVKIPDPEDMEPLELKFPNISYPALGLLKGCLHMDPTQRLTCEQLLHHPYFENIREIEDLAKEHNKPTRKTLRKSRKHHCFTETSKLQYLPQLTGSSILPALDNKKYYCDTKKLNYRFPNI
Sequence of Cyclin-dependent kinase 4 (Homo sapiens) (P11802 whole entry): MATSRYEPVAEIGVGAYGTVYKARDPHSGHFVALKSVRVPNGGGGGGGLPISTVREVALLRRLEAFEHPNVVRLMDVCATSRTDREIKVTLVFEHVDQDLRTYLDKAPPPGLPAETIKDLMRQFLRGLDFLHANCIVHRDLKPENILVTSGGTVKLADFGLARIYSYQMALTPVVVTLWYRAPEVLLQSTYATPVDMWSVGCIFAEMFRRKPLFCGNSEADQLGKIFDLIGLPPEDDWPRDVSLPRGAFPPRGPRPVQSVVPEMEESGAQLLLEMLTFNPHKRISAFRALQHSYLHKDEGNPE
Sequence of Mast/stem cell growth factor receptor Kit (Homo sapiens), P10721 [D816V] (P10721 whole entry D816V): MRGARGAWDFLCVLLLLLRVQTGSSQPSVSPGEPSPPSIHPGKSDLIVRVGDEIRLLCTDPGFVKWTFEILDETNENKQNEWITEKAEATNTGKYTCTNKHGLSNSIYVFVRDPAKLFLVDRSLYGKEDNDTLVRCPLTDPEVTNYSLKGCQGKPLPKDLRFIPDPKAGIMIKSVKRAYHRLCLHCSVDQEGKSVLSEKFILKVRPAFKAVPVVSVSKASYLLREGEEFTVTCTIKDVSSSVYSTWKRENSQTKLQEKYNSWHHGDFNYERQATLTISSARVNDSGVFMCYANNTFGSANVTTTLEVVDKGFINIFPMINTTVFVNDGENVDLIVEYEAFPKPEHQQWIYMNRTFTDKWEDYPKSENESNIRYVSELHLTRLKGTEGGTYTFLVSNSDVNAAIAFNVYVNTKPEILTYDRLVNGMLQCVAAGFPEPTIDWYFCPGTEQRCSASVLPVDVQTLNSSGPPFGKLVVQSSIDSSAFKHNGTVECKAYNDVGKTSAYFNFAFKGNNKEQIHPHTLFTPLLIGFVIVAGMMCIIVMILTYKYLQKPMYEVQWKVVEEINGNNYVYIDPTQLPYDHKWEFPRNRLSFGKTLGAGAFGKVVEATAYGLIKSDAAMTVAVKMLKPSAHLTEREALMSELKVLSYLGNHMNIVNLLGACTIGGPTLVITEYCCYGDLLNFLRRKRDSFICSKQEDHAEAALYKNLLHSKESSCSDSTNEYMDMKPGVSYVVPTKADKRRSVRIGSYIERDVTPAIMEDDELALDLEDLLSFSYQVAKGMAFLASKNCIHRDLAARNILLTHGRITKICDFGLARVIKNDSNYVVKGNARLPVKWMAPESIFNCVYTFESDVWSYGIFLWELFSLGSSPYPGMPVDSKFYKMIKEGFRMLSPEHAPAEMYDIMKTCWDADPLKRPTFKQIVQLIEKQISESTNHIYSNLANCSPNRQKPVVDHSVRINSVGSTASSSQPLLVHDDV
Sequence of Serine/threonine-protein kinase 4 (Homo sapiens) (Q13043 whole entry): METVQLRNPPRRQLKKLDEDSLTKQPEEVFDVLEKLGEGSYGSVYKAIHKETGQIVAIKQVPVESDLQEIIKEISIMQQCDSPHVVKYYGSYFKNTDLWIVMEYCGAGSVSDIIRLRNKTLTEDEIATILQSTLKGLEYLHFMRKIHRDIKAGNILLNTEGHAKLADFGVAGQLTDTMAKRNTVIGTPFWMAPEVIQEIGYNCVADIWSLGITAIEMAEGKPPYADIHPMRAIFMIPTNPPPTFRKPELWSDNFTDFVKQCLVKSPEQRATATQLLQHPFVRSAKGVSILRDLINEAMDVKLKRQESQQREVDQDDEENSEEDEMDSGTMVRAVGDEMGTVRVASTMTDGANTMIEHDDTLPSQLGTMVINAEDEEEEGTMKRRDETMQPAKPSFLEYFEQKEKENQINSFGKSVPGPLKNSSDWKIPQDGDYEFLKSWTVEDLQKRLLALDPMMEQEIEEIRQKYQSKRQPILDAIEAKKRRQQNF
Sequence of Casein kinase II subunit alpha' (Homo sapiens) (P19784 whole entry, looked up): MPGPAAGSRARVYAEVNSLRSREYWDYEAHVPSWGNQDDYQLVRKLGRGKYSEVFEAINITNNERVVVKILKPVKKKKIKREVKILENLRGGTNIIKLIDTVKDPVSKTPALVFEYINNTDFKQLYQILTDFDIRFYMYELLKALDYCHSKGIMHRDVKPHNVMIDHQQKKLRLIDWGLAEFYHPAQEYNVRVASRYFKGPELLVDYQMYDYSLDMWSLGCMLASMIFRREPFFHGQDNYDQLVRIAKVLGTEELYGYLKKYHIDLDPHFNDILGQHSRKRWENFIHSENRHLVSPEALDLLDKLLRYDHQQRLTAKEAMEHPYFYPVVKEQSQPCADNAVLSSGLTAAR
Sequence of Tyrosine-protein kinase Fes/Fps (Homo sapiens) (P07332 whole entry): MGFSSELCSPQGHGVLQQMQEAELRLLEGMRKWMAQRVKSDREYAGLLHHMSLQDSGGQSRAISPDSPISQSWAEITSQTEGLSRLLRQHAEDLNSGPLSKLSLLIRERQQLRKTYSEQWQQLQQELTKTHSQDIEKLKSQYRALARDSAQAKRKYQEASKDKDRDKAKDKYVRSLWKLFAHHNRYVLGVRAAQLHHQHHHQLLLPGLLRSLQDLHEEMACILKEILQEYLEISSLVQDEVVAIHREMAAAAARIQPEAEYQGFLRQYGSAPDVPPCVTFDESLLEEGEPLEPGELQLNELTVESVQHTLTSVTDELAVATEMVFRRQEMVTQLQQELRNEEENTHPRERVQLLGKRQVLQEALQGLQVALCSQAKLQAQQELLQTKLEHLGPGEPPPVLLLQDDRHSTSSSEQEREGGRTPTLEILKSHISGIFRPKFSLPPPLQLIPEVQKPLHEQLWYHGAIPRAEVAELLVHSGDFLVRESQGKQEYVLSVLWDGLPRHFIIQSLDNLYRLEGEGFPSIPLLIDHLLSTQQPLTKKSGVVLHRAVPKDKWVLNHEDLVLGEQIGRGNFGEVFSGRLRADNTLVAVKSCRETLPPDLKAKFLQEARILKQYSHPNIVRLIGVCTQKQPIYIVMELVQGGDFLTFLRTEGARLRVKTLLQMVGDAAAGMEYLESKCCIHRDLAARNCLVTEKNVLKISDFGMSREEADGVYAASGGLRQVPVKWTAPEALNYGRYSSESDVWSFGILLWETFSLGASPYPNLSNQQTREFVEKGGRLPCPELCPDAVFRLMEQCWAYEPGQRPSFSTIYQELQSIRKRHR
Sequence of Casein kinase I isoform delta (Homo sapiens) (P48730 whole entry, looked up, canonical isoform): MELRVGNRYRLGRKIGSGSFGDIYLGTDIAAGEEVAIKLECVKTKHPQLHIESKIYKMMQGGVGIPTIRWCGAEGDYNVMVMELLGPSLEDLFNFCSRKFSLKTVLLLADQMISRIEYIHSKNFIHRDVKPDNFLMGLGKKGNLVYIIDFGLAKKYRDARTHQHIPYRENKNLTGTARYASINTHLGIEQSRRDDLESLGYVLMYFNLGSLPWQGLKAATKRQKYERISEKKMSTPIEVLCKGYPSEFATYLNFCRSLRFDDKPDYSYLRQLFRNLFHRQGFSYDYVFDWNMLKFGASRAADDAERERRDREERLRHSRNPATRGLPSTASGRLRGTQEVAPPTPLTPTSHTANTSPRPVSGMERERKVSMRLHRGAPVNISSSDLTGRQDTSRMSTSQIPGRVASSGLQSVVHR

O=c1nc(-c2ccccn2)sc2ccccc12 [BTZO-1]
inactive: residual activity [1] 74% | residual activity [2] 81% | residual activity [3] 100% | residual activity [4] 87% | residual activity [5] 92% | residual activity [6] 92% | residual activity [7] 85% | residual activity [8] 86% | residual activity [9] 100% | residual activity [10] 96% | residual activity [11] 100% | residual activity [12] 100% | residual activity [13] 100% | residual activity [14] 100% | residual activity [15] 97% | residual activity [16] 87% | residual activity [17] 92% | inhibition [18] 17% | residual activity [19] 100% | residual activity [20] 70% | residual activity [21] 100% | residual activity [22] 75% | residual activity [23] 100% | residual activity [24] 100% | residual activity [25] 100% | residual activity [26] 100% | residual activity [27] 100% | residual activity [28] 100% | residual activity [29] 83% | residual activity [30] 100% | residual activity [31] 80% | residual activity [32] 76% | residual activity [33] 100% | residual activity [34] 85% | residual activity [35] 76% | residual activity [36] 100% | residual activity [37] 100% | residual activity [38] 91% | residual activity [39] 100% | residual activity [40] 100% | residual activity [41] 100% | residual activity [42] 100% | residual activity [43] 89% | residual activity [44] 100% | residual activity [45] 100%

O=C1NC(c2ccccn2)Sc2ccccc21 (stereo not given) [BTZO-4]
inactive: residual activity [1] 65% | residual activity [2] 74% | residual activity [3] 95% | residual activity [4] 75% | residual activity [5] 81% | residual activity [6] 79% | residual activity [7] 88% | residual activity [8] 100% | residual activity [9] 100% | residual activity [10] 90% | residual activity [11] 100% | residual activity [12] 100% | residual activity [13] 96% | residual activity [14] 91% | residual activity [15] 88% | residual activity [16] 100% | residual activity [17] 100% | inhibition [18] -5.58% | residual activity [19] 100% | residual activity [20] 86% | residual activity [21] 94% | residual activity [22] 81% | residual activity [23] 100% | residual activity [24] 100% | residual activity [25] 94% | residual activity [26] 100% | residual activity [27] 100% | residual activity [28] 100% | residual activity [29] 88% | residual activity [30] 87% | residual activity [31] 73% | residual activity [32] 80% | residual activity [33] 88% | residual activity [34] 85% | residual activity [35] 59% | residual activity [36] 100% | residual activity [37] 80% | residual activity [38] 89% | residual activity [39] 100% | residual activity [40] 100% | residual activity [41] 78% | residual activity [42] 100% | residual activity [43] 92% | residual activity [44] 100% | residual activity [45] 82%
